Assay results published in PubChem BioAssay AID248 (DTP/NCI, 2004).
Values joined by “and” are separate entries in the source; they are usually repeats but may differ in a detail not shown here. Equal entries are not always repeated. Inconclusive results and toxic doses are left out.

Test system: L1210 leukemia ip in BDF1 mice, survival T/C
Assay: NCI In Vivo Anticancer Drug Screen. Data for tumor model L1210 Leukemia (intraperitoneal) in B6D2F1 (BDF1) mice
Conditions: endpoint: mean survival time, higher = longer survival
How it was run: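 Read-out is survival time, reported as the treated-group measurement over the vehicle-control measurement.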

[1] = dose: 100.0 mg/kg/injection, schedule: Q04DX002 (ip), vehicle: Klucel (hydroxypropylcellulose) (HPC)
[2] = dose: 200.0 mg/kg/injection, schedule: Q04DX002 (ip), vehicle: Klucel (hydroxypropylcellulose) (HPC)
[3] = dose: 100.0 mg/kg/injection, schedule: Q04DX003 (ip), vehicle: saline
[4] = dose: 100.0 mg/kg/injection, schedule: Q04DX002 (ip), vehicle: saline
[5] = dose: 200.0 mg/kg/injection, schedule: Q04DX002 (ip), vehicle: saline
[6] = dose: 400.0 mg/kg/injection, schedule: Q04DX002 (ip), vehicle: saline
[7] = dose: 100.0 mg/kg/injection, schedule: Q01DX009 (ip), vehicle: saline
[8] = dose: 200.0 mg/kg/injection, schedule: Q01DX009 (ip), vehicle: saline
[9] = dose: 200.0 mg/kg/injection, schedule: Q04DX003 (ip), vehicle: saline
[10] = dose: 400.0 mg/kg/injection, schedule: Q01DX009 (ip), vehicle: saline

CC(C)c1nc2c(n1Cc1ccccc1)C=C(C(=O)c1ccccc1)S(=O)(=O)C(C(=O)c1ccccc1)=C2
T/C (dose: 25.0 mg/kg/injection, schedule: Q04DX003 (ip), vehicle: saline with Tween-80): 107 % of control and 86 % of control | T/C (dose: 50.0 mg/kg/injection, schedule: Q01DX001 (ip), vehicle: saline with Tween-80): 93 % of control and 104 % of control | T/C (dose: 50.0 mg/kg/injection, schedule: Q04DX002 (ip), vehicle: Klucel (hydroxypropylcellulose) (HPC)): 106 % of control | T/C (dose: 50.0 mg/kg/injection, schedule: Q04DX002 (ip), vehicle: saline with Tween-80): 104 % of control and 105 % of control | T/C (dose: 100.0 mg/kg/injection, schedule: Q01DX001 (ip), vehicle: saline with Tween-80): 93 % of control and 89 % of control | T/C [1]: 110 % of control | T/C (dose: 200.0 mg/kg/injection, schedule: Q01DX001 (ip), vehicle: saline with Tween-80): 100 % of control and 91 % of control | T/C [2]: 93 % of control and 103 % of control | T/C (dose: 200.0 mg/kg/injection, schedule: Q04DX003 (ip), vehicle: saline with Tween-80): 96 % of control and 89 % of control | T/C (dose: 400.0 mg/kg/injection, schedule: Q04DX002 (ip), vehicle: Klucel (hydroxypropylcellulose) (HPC)): 93 % of control | T/C (dose: 400.0 mg/kg/injection, schedule: Q04DX002 (ip), vehicle: saline with Tween-80): 93 % of control and 89 % of control

CCCCC(CC)CNCCOC(=O)c1ccc(N)cc1 (centres undefined)
T/C (dose: 75.0 mg/kg/injection, schedule: Q01DX001 (ip), vehicle: other): 92 % of control | T/C (dose: 150.0 mg/kg/injection, schedule: Q01DX001 (ip), vehicle: other): 100 % of control

CN1C2CCCCC1CC(=O)NC2 (centres undefined)
T/C (dose: 75.0 mg/kg/injection, schedule: Q01DX001 (ip), vehicle: saline): 98 % of control | T/C (dose: 150.0 mg/kg/injection, schedule: Q01DX001 (ip), vehicle: saline): 101 % of control

COCc1ccc(N2C(N)=NC(N)=NC2(C)C)cc1
T/C [3]: 95 % of control

FC(F)(F)c1nc(S)cc(=S)[nH]1
T/C (dose: 50.0 mg/kg/injection, schedule: Q01DX Z (ip), vehicle: methylcellulose (MC)): 96 % of control | T/C (dose: 100.0 mg/kg/injection, schedule: Q01DX Z (ip), vehicle: methylcellulose (MC)): 93 % of control

Cc1cc(=O)[nH]c(NCCCC(N)C(=O)O)n1 (centres undefined)
T/C [4]: 104 % of control | T/C [5]: 101 % of control | T/C [6]: 96 % of control

Cc1c(Cl)c(C)c(Cl)c(Cl)c1Cl
T/C (dose: 100.0 mg/kg/injection, schedule: Q01DX001 (ip), vehicle: saline): 106 % of control | T/C [7]: 101 % of control | T/C [3]: 89 % of control | T/C (dose: 200.0 mg/kg/injection, schedule: Q01DX001 (ip), vehicle: saline): 98 % of control | T/C [8]: 108 % of control | T/C [9]: 87 % of control | T/C (dose: 400.0 mg/kg/injection, schedule: Q01DX001 (ip), vehicle: saline): 96 % of control | T/C [10]: 94 % of control | T/C (dose: 400.0 mg/kg/injection, schedule: Q04DX003 (ip), vehicle: saline): 94 % of control

CCCCC(CC)CNC1CCCCC1 (centres undefined)
T/C (dose: 75.0 mg/kg/injection, schedule: Q01DX009 (ip), vehicle: Klucel (hydroxypropylcellulose) (HPC)): 98 % of control | T/C [1]: 101 % of control | T/C (dose: 150.0 mg/kg/injection, schedule: Q01DX009 (ip), vehicle: Klucel (hydroxypropylcellulose) (HPC)): 101 % of control | T/C [2]: 97 % of control

CN=C(NC)c1ccc(NC(=O)/C=C\c2ccc(C(=O)Nc3ccc(C(=NC)NC)cc3)cc2)cc1
T/C (dose: 0.23 mg/kg/injection, schedule: Q01DX Z (ip), vehicle: saline): 90 % of control | T/C (dose: 0.47 mg/kg/injection, schedule: Q01DX Z (ip), vehicle: saline): 114 % of control | T/C (dose: 0.5 mg/kg/injection, schedule: Q01DX006 (iv), vehicle: saline): 105 % of control | T/C (dose: 0.5 mg/kg/injection, schedule: Q01DX Z (ip), vehicle: saline): 104 % of control | T/C (dose: 0.5 mg/kg/injection, schedule: Q01DX Z (sc), vehicle: saline): 96 % of control | T/C (dose: 0.5 mg/kg/injection, schedule: Q02DX004 (im), vehicle: saline): 98 % of control | T/C (dose: 0.94 mg/kg/injection, schedule: Q01DX Z (ip), vehicle: saline): 120 % of control | T/C (dose: 1.0 mg/kg/injection, schedule: Q01DX006 (iv), vehicle: saline): 107 % of control | T/C (dose: 1.0 mg/kg/injection, schedule: Q01DX Z (ip), vehicle: saline): 118 % of control | T/C (dose: 1.0 mg/kg/injection, schedule: Q01DX Z (sc), vehicle: saline): 94 % of control | T/C (dose: 1.0 mg/kg/injection, schedule: Q02DX004 (im), vehicle: saline): 105 % of control | T/C (dose: 2.0 mg/kg/injection, schedule: Q01DX006 (iv), vehicle: saline): 100 % of control | T/C (dose: 2.0 mg/kg/injection, schedule: Q01DX Z (sc), vehicle: saline): 105 % of control | T/C (dose: 2.0 mg/kg/injection, schedule: Q02DX004 (im), vehicle: saline): 96 % of control | T/C (dose: 3.75 mg/kg/injection, schedule: Q01DX Z (ip), vehicle: saline): 248 % of control | T/C (dose: 4.0 mg/kg/injection, schedule: Q01DX006 (iv), vehicle: saline): 105 % of control | T/C (dose: 4.0 mg/kg/injection, schedule: Q01DX Z (ip), vehicle: saline): 209 % of control | T/C (dose: 4.0 mg/kg/injection, schedule: Q01DX Z (sc), vehicle: saline): 164 % of control | T/C (dose: 4.0 mg/kg/injection, schedule: Q02DX004 (im), vehicle: saline): 107 % of control | T/C (dose: 8.0 mg/kg/injection, schedule: Q01DX006 (iv), vehicle: saline): 116 % of control | T/C (dose: 8.0 mg/kg/injection, schedule: Q01DX Z (ip), vehicle: saline): 121 % of control | T/C (dose: 15.0 mg/kg/injection, schedule: Q01DX Z (ip), vehicle: saline): 86 % of control | T/C (dose: 15.0 mg/kg/injection, schedule: Q01DX Z (oral), vehicle: other): 97 % of control | T/C (dose: 16.0 mg/kg/injection, schedule: Q01DX004 (im), vehicle: saline): 123 % of control | T/C (dose: 16.0 mg/kg/injection, schedule: Q01DX006 (iv), vehicle: saline): 107 % of control | T/C (dose: 16.0 mg/kg/injection, schedule: Q01DX Z (ip), vehicle: saline): 107 % of control | T/C (dose: 16.0 mg/kg/injection, schedule: Q01DX Z (sc), vehicle: saline): 120 % of control | T/C (dose: 16.0 mg/kg/injection, schedule: Q02DX004 (im), vehicle: saline): 191 % of control | T/C (dose: 30.0 mg/kg/injection, schedule: Q01DX Z (oral), vehicle: other): 95 % of control | T/C (dose: 32.0 mg/kg/injection, schedule: Q01DX004 (im), vehicle: saline): 161 % of control | T/C (dose: 60.0 mg/kg/injection, schedule: Q01DX Z (oral), vehicle: other): 104 % of control | T/C (dose: 62.5 mg/kg/injection, schedule: Q## X009 (oral), vehicle: saline): 93 % of control | T/C (dose: 125.0 mg/kg/injection, schedule: Q## X010 (oral), vehicle: saline): 112 % of control | T/C (dose: 128.0 mg/kg/injection, schedule: Q01DX004 (im), vehicle: saline): 116 % of control | T/C (dose: 250.0 mg/kg/injection, schedule: Q## X010 (oral), vehicle: saline): 111 % of control | T/C (dose: 500.0 mg/kg/injection, schedule: Q## X009 (oral), vehicle: saline): 102 % of control

OCc1cccs1
T/C (dose: 100.0 mg/kg/injection, schedule: Q01DX009 (ip), vehicle: Klucel (hydroxypropylcellulose) (HPC)): 108 % of control | T/C (dose: 100.0 mg/kg/injection, schedule: Q04DX003 (ip), vehicle: Klucel (hydroxypropylcellulose) (HPC)): 97 % of control | T/C (dose: 200.0 mg/kg/injection, schedule: Q01DX009 (ip), vehicle: Klucel (hydroxypropylcellulose) (HPC)): 94 % of control | T/C (dose: 200.0 mg/kg/injection, schedule: Q04DX003 (ip), vehicle: Klucel (hydroxypropylcellulose) (HPC)): 97 % of control | T/C (dose: 400.0 mg/kg/injection, schedule: Q01DX009 (ip), vehicle: Klucel (hydroxypropylcellulose) (HPC)): 103 % of control | T/C (dose: 400.0 mg/kg/injection, schedule: Q04DX003 (ip), vehicle: Klucel (hydroxypropylcellulose) (HPC)): 97 % of control

OCCN1CCN(CCCN2c3ccccc3Oc3ccc(C(F)(F)F)cc32)CC1
T/C (dose: 25.0 mg/kg/injection, schedule: Q04DX003 (ip), vehicle: saline): 92 % of control | T/C (dose: 50.0 mg/kg/injection, schedule: Q04DX003 (ip), vehicle: saline): 106 % of control

NC(=O)C1CCC(=O)N1 (centres undefined)
T/C [7]: 93 % of control | T/C [4]: 104 % of control | T/C [8]: 101 % of control | T/C [5]: 98 % of control | T/C [10]: 93 % of control | T/C [6]: 91 % of control

CN(C)P1(=O)OCCN1N (centres undefined)
T/C (dose: 50.0 mg/kg/injection, schedule: Q01DX009 (ip), vehicle: saline): 105 % of control | T/C [7]: 117 % of control | T/C [3]: 104 % of control | T/C [8]: 103 % of control | T/C [9]: 96 % of control
